The text below walks through data of PMC7119063 (Bioorganic & Medicinal Chemistry, 2005).

Assay [1] has as its system SARS-CoV. The settings on record: cited from earlier work.
The target of assay [2] is SARS-CoV 3CL protease (Severe acute respiratory syndrome coronavirus, UniProt P0C6X7). It is filed as biochemical.
For assay [3], the system named is SARS-CoV. It is filed as cell-based.
The test system of assay [4] is human rhinovirus (HRV) 3C protease. The following applies: cited from earlier work.

The structures appear in SMILES notation. “Also recorded” adds a separate entry of the source.

In general, EC50 refers to the concentration that produces a half-maximal response. Take `CC(C)[C@@H]1NC(=O)[C@H](C)OC(=O)[C@@H](C(C)C)NC(=O)[C@@H](C(C)C)OC(=O)[C@H](C(C)C)NC(=O)[C@H](C)OC(=O)[C@@H](C(C)C)NC(=O)[C@@H](C(C)C)OC(=O)[C@H](C(C)C)NC(=O)[C@H](C)OC(=O)[C@@H](C(C)C)NC(=O)[C@@H](C(C)C)OC1=O` [valinomycin]: the 50% effective concentration (EC50) in assay [1] is 850 nM.

Regarding `CCOC(=O)C=CC(CC1CCNC1=O)NC(=O)C(CC(=O)C(NC(=O)c1cc(C)on1)C(C)C)Cc1ccc(F)cc1` (centres unmarked) [Compound 1a, Ethyl 4-[2-(4-fluorobenzyl)-6-methyl-5-(5-methyl-3-isoxazolyl)carbonylamino-1,4-dioxoheptylamino]-5-(2-oxo-3-pyrrolidinyl)-2-pentenoate], in assay [2], the “inhibitory activity against SARS-CoV 3CL protease (in words)” value is “no inhibitory activity; also recorded: inactive”. Besides, in assay [3], the “concentration at which active as anti-SARS agent (protection from CPE)” value was “inactive”. For the same compound, in assay [1], the “activity to the SARS-CoV in a cell-based assay” value was “inactive”. For the same compound, the “inhibition of HRV 3C protease (in words)” value in assay [4] was “potent inhibitor”.
